Holding throughout (assay): growth of human tumour cells (NCI), 48 h
Experiment [1] relates to A498.
The subject of experiment [2] is A549.
Experiment [3] has as its system CCRF-CEM.
The subject of experiment [4] is COLO 205.
Experiment [5] relates to HCT-15.
Experiment [6] relates to HOP-62.
For experiment [7], the system named is HOP-92.
For experiment [8], the system named is IGROV-1.
Experiment [9] has as its system K562.
Experiment [10] deals with KM12.
The test system of experiment [11] is MCF7.
Experiment [12] deals with MDA-N.
Experiment [13] has as its system NCI-H23.
The test system of experiment [14] is NCI-H460.
For experiment [15], the system named is NCI/ADR-RES.
The test system of experiment [16] is SF-268.
Experiment [17] relates to T47D.
Experiment [18] has as its system TK-10.
The subject of experiment [19] is UACC-257.
The subject of experiment [20] is UACC-62.

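Interpolation was linear, between the two tested concentrations surrounding the appropriate level; five concentrations were tested over 48 hours in 96-well plates. Here, GI50 denotes the concentration required for 50% inhibition of growth.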 Activity calls are given as the source filed them. Cut-off read from the data, not from the text of the source: active = GI50 up to about 1.1 µM and inactive = higher.

With `C/C=C/C=C\C1OC(O)([C@H](CC)C(=O)NC/C=C/C=C(\C)[C@H](OC)C(C)C2OC(\C=C/C=C/C=C(\C)C(=O)c3c(O)ccn(C)c3=O)[C@H](O)[C@@H]2O)C(O)C(O)C1(C)C` (stereo not given in full), the GI50 in experiment [1] is > 100 µM (inactive); in experiment [2], > 100 µM (inactive); in [3] it was 38.4 µM (inactive); in experiment [4], > 100 µM (inactive); in [5], above 100 µM; in experiment [6], > 100 µM (inactive). For the same molecule, the GI50 in experiment [7] was > 100 µM (inactive); in experiment [8] it was 82 µM (inactive); in [9], 73.5 µM (inactive); in [10] it was > 100 µM (inactive); in [11] it was > 100 µM (inactive); in experiment [12], > 100 µM (inactive). Moreover, the GI50 in experiment [13] was > 100 µM (inactive); in experiment [14] it was > 100 µM (inactive); in [15], > 100 µM (inactive); in experiment [16] it was > 100 µM (inactive); in experiment [17], 40.2 µM (inactive); in experiment [18], > 100 µM (inactive). In addition, the GI50 in [19] is > 100 µM (inactive); in experiment [20], 96.2 µM (inactive).
As for `CCc1ccc(CCN2CCCCC2)nc1`, the GI50 in [1] was > 100 µM (inactive); in experiment [2], > 100 µM (inactive); in [3], > 100 µM (inactive); in experiment [4], > 100 µM (inactive); in experiment [5] it was above 100 µM; in [6] it was > 100 µM (inactive). Besides, the GI50 in [7] is 46.3 µM (inactive); in [8], 58.9 µM (inactive); in experiment [9], > 100 µM (inactive); in experiment [10], > 100 µM (inactive); in [11] it was > 100 µM (inactive); in experiment [12], > 100 µM (inactive). The GI50 in experiment [13], in [14], in experiment [15], in experiment [16], in [17] and in experiment [18] was > 100 µM (inactive) throughout. The GI50 in experiment [19] and in experiment [20] was > 100 µM (inactive) in each case.
For `CC(=O)Nc1ccc(-c2nc3cc(Cl)ccc3o2)cc1`, the GI50 in experiment [1] is > 50 µM (inactive); in experiment [2], > 50 µM (inactive); in experiment [3] it was > 50 µM (inactive); in [4], > 50 µM (inactive); in [5] it was above 50 µM; in experiment [6], > 50 µM (inactive). Moreover, the GI50 in experiment [7], in experiment [8], in [9], in experiment [10], in experiment [11] and in experiment [12] was > 50 µM (inactive) in each case. For the same molecule, the GI50 was > 50 µM (inactive) in experiment [13]; > 50 µM (inactive) in experiment [14]; > 50 µM (inactive) in experiment [15]; > 50 µM (inactive) in experiment [16]; 20.4 µM (inactive) in experiment [17]; > 50 µM (inactive) in experiment [18]. In addition, the GI50 in experiment [19] and in experiment [20] was > 50 µM (inactive) throughout.
As for `O=C1c2cc3c(cc2NC(c2ccccc2F)C1O)OCO3` (stereo not given), the GI50 in experiment [1] was 13.3 µM (inactive); in experiment [2] it was 11.7 µM (inactive); in [3], 14 µM (inactive); in [4] it was 5.3 µM (inactive); in experiment [5], 5.45 µM; in [6] it was 22.7 µM (inactive). Moreover, the GI50 is 33.6 µM (inactive) in experiment [7]; 13.5 µM (inactive) in [8]; 6.85 µM (inactive) in experiment [9]; 6.65 µM (inactive) in experiment [10]; 5.27 µM (inactive) in [11]; 2.36 µM (inactive) in experiment [12]. Further, the GI50 in [13] is 22.6 µM (inactive); in experiment [14], 9.46 µM (inactive); in [15] it was 10.5 µM (inactive); in experiment [16] it was 19.4 µM (inactive); in [17], > 59.6 µM (inactive); in experiment [18] it was 21 µM (inactive). Also, the GI50 in [19] was 22.9 µM (inactive); in experiment [20], 10.9 µM (inactive).
